Columns and labels:
Type in all cases: cell-based
[1] = test system: SPI1 type III protein secretion system (SipB secretion); test: Secondary assay: Type III-dependent protein secretion of the SipB polypeptide (immunoblot); conditions: Salmonella enterica, read-out: SipB IC50(uM)
Description: Secondary assay: Type III-dependent protein secretion of the SipB polypeptide by S. enterica. The SipB protein of S. enterica is another effector of the SPI1 type III protein secretion system from S. enterica. In this cell-based procedure, the Type III-dependent secretion of SipB from the bacterial cytoplasm to the extracellular medium was measured through its reactivity with a cognate mouse monoclonal.
Salmonella enterica cells growing either in the presence or in the absence of inhibitors are induced for the production of SipB. Following an established period of growth the cells are sedimented and the amount of SipB present in the supernatant is quantified with a scanning imager following application of immunoblot techniques. Detection may employ an anti-SipB mouse monoclonal antibody (e.g., obtained from Jorge Galan, SUNY at Stony Brook, N.Y.) followed by treatment with commercially available sheep anti-mouse polyclonal antibody conjugated with horseradish peroxidase. Thereafter the membrane is treated with a peroxidase chemiluminescent substrate and exposed to film for an appropriate exposure time. Inhibition may be measured relative to untreated controls.

[2] = test system: type III protein secretion system of P. aeruginosa PA103 (ExoU secretion); test: Tertiary assay: Type III-dependent secretion of ExoU by P. aeruginosa PA103 (SDS-PAGE band quantitation); conditions: Pseudomonas aeruginosa; P. aeruginosa PA103, ExoU secreted into extracellular medium
Excerpt: Tertiary assay: Inhibition of Type III protein secretion of effectors from a Pseudomonas aeruginosa system. Type III protein secretion is used by P. aeruginosa to secrete several essential virulence determinants. One effector of the type III protein secretion system of P. aeruginosa PA103 is the virulence determinants ExoU.
The amount of Type III-dependent secretion of ExoU by P. aeruginosa PA103 can be determined in a cell-based assay by quantification of the 73.9 kDa ExoU protein secreted into the extracellular medium. Such quantitation can be achieved by growing strain PA103 in a deferrated medium in the presence of nitrilotriacetic acid (an inducer of Type III protein secretion in P. aeruginosa) and either in the presence or absence of putative inhibitors. After a prolonged growth period, the cells are sedimented and the supernatants concentrated by ammonium sulfate precipitation. The proteins in the resuspended pellets are separated by electrophoresis on SDS-polyacrylamide gels. After staining gels with Colloidal Blue™, the 73.9 kDa ExoU band is quantitated by scanning through an imager. The effects of inhibitors on the intensity of the ExoU band may be measured relative to that of untreated controls.

[3] = test system: SPI1 type III protein secretion system (SopE‘-’Bla secretion); test: Primary assay: Type III protein secretion of the chimeric SopE‘-’Bla polypeptide (nitrocefin hydrolysis); conditions: Salmonella enterica, read-out: SopE IC50(uM)
Excerpt: Primary assay: Type III protein secretion of the chimeric SopE‘-’Bla polypeptide by Salmonella enterica. This procedure is a cell-based assay that measures the type III-dependent secretion by Salmonella enterica of a plasmid-encoded chimeric polypeptide whose synthesis can be regulated, and which is endowed with an enzymatic activity that can be monitored colorimetrically by hydrolysis of a substrate that is unable to penetrate into the bacterial cytoplasm within the time constraints of the reaction. Thus, the colorimetric reaction is not influenced by SopE‘-’Bla polypeptide in the bacterial cytoplasm. Instead, it effectively measures the amount of polypeptide that has been secreted from the S. enterica cytoplasm to the extracellular medium via type III system protein secretion.
The SopE‘-’Bla recombinant polypeptide consists of two functionally distinct domains spliced together. The N-terminus domain is encoded by a polynucleotide region specifying the signal for type III secretion of the SopE polypeptide of S. enterica, an effector of the SPI1 type III protein secretion system. The C-terminus domain of SopE‘-’Bla consists of a 263 amino acid peptide sequence that corresponds to the TEM-1 β-lactamase expressed by plasmid pBR322 but without its N-terminal signal sequence. The TEM-1 β-lactamase part of the SopE‘-’Bla chimeric polypeptide is used as a reporter enzyme. It is capable of hydrolyzing nitrocefin resulting in a product whose accumulation can be monitored by colorimetric detection. The secretion of the SopE‘—’Bla chimeric polypeptide from the cytoplasm to the extracellular medium is dependent on type III protein secretion.
For this procedure, cells grown under conditions known to favor a functional SPI1 secretion system are induced for expression of the SopE‘-’Bla protein and grown either in the presence or in the absence of putative inhibitors for determined time. Nitrocefin is then added to the various cultures and its hydrolysis are used for quantitation. An inhibitor of Type III protein secretion is generally a compound that reduces the signal of the enzymatic reaction by decreasing the amount of SopE‘-’Bla secreted into the extracellular medium.

For `O=C(O)C(Cc1ccc(Cl)cc1)Nc1nc(-c2ccc(C(F)(F)F)cc2)nc(N2CCN(c3ccccn3)CC2)n1` (stereo not drawn) [Compound 4, 3-(4-Chlorophenyl)-2-[4-(4-pyridin-2-yl-piperazin-1-yl)-6-(4-trifluoromethylphenyl)[1,3,5]triazin-2-yl-amino]propionic acid], the IC50 [1] was 46.4 µM, the IC50 [2] was over 100 µM and the IC50 [3] was 8.5 µM.

Compound `O=C(O)C(CSCc1ccccc1)Nc1nc(-c2ccc(-c3ccccc3)cc2)nc(N2CCN(c3ccccn3)CC2)n1` (stereo in doubt) [Compound 2, (S)-3-Benzylsulfanyl-2-[4-biphenyl-4-yl-6-(4-pyridin-2-yl-piperazin-1-yl)-[1,3,5]triazin-2-yl-amino]propionic acid] has an IC50 [1] of 36.1 µM, an IC50 [2] of over 100 µM and an IC50 [3] of 6.4 µM.

`O=C(O)C(Cc1ccc(Cl)cc1)Nc1nc(-c2ccc(-c3ccccc3)cc2)nc(N2CCN(c3ccccn3)CC2)n1` (stereo not drawn) [Compound 6, 2-[4-Biphenyl-4-yl-6-(4-pyridin-2-yl-piperazin-1-yl)[1,3,5]triazin-2-yl-amino]-3-(4-chlorophenyl)propionic acid] showed an IC50 [1] of 28 µM, an IC50 [2] of over 100 µM and an IC50 [3] of 5.3 µM.

`O=C(O)[C@H](COCc1ccccc1)Nc1nc(-c2ccc3ccccc3c2)nc(N2CCN(c3ccccn3)CC2)n1` [Compound 1, (S)-3-Benzyloxy-2-[4-naphthalen-2-yl-6-(4-pyridin-2-yl-piperazin-1-yl)-[1,3,5]triazin-2-yl-amino]propionic acid] showed an IC50 [1] of 64.8 µM, an IC50 [2] of over 100 µM and an IC50 [3] of 12.4 µM.

`O=C(O)[C@H](C[S+]([O-])Cc1ccccc1)Nc1nc(-c2ccc(-c3ccccc3)cc2)nc(N2CCN(c3ccccn3)CC2)n1` (stereo partly drawn) [Compound 8, (R)-2-[4-Biphenyl-4-yl-6-(4-pyridin-2-yl-piperazin-1-yl)[1,3,5]triazin-2-yl-amino]-3-phenylmethanesulfinylpropionic acid] showed an IC50 [1] of 34 µM, an IC50 [2] of over 100 µM and an IC50 [3] of 14.4 µM.

`O=C(O)C(Cc1ccc(-c2ccc(C(F)(F)F)cc2)cc1)Nc1nc(-c2ccc(C(F)(F)F)cc2)nc(N2CCN(c3ccccn3)CC2)n1` (stereo not drawn) [Compound 5, 2-[4-(4-Pyridin-2-yl-piperazin-1-yl)-6-(4-trifluoromethylphenyl)[1,3,5]triazin-2-yl-amino]-3-(4′-trifluoromethylbiphenyl-4-yl)propionic acid] was tested, and the IC50 [1] was 18.2 µM, the IC50 [2] was over 100 µM and the IC50 [3] was 10.2 µM.

For `O=C(O)[C@H](C[S+]([O-])Cc1ccccc1)Nc1nc(-c2ccc(C(F)(F)F)cc2)nc(N2CCc3ccccc3C2)n1` (stereo partly drawn) [Compound 3, (R)-2-[4-(3,4-Dihydro-1H-isoquinolin-2-yl)-6-(4-trifluoromethylphenyl)-[1,3,5]triazin-2-yl-amino]-3-phenylmethanesulfinylpropionic acid], the IC50 [1] was 12.5 µM, the IC50 [2] was over 100 µM and the IC50 [3] was 8.5 µM.

In the case of `O=C(O)[C@H](CSCc1ccccc1)Nc1nc(Nc2ccc(C(F)(F)F)cc2)nc(-c2ccc3c(c2)OCO3)n1` [Compound 26, (R)-2-[4-Benzo[1,3]dioxol-5-yl-6-(4-trifluoromethylphenylamino)[1,3,5]triazin-2-yl-amino]-3-benzylsulfanylpropionic acid], the IC50 [1] is reported as 28.1 µM, the IC50 [2] is reported as 52.1 µM and the IC50 [3] is reported as 5.8 µM.

`O=C(O)[C@H](C[S+]([O-])Cc1ccccc1)Nc1nc(-c2ccc(C(F)(F)F)cc2)nc(N2CCN(c3ccccn3)CC2)n1` (stereo partly drawn) [Compound 10, (R)-3-Phenylmethanesulfinyl-2-[4-(4-pyridin-2-yl-piperazin-1-yl)-6-(4-trifluoromethylphenyl)[1,3,5]triazin-2-yl-amino]propionic acid] gave an IC50 [1] of over 100 µM, an IC50 [2] of over 100 µM and an IC50 [3] of 50.1 µM.

For `O=C(O)C(Cc1ccc(-c2ccc(-c3ccccc3)cc2)cc1)Nc1nc(-c2ccc(-c3ccccc3)cc2)nc(N2CCN(c3ccccn3)CC2)n1` (stereo not drawn) [Compound 7, 2-[4-Biphenyl-4-yl-6-(4-pyridin-2-yl-piperazin-1-yl)[1,3,5]triazin-2-yl-amino]-3[1,1′;4′,1″]terphenyl-4-yl-propionic acid], the IC50 [1] was 17.5 µM, the IC50 [2] was over 100 µM and the IC50 [3] was 12.6 µM.

From patent publication US20050250945A1, “Triazine compounds as inhibitors of bacterial type III protein secretion systems” (priority 2004, published 2005)
